Laboratory results taken from PubChem BioAssay AID272 (DTP/NCI, 2004).
Where “and” joins values, the source holds several entries; their conditions need not be identical. Equal values may be shown once. Results filed as inconclusive are left out.

Tested on: Lewis lung carcinoma i.m., BDF1 mice, T/C %
Assay: NCI In Vivo Anticancer Drug Screen. Data for tumor model Lewis Lung Carcinoma (intramuscular) in B6D2F1 (BDF1) mice
Outline: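 Compound given to mice with transplantable tumours; survival or tumour size compared against the vehicle control group, reported as T divided by C.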

[1] = endpoint: median survival time, dose: 2.0 mg/kg/injection, schedule: Q01DX011 (ip), vehicle: saline, higher = longer survival
[2] = endpoint: mean tumor weight, dose: 25.0 mg/kg/injection, schedule: Q01DX011 (ip), vehicle: saline, higher = larger tumour
[3] = endpoint: median survival time, dose: 25.0 mg/kg/injection, schedule: Q01DX011 (ip), vehicle: saline, higher = longer survival
[4] = endpoint: mean tumor weight (est.), dose: 100.0 mg/kg/injection, schedule: Q01DX011 (ip), vehicle: saline with Tween-80, higher = larger tumour

SMILES: OC(C1CO1)C(O)C1CO1 (stereo unspecified)
- T/C (endpoint: median survival time, dose: 1.0 mg/kg/injection, schedule: Q01DX011 (ip), vehicle: saline, higher = longer survival): 110 % of control
- T/C [1]: 108 % of control
- T/C (endpoint: median survival time, dose: 3.0 mg/kg/injection, schedule: Q01DX011 (ip), vehicle: saline, higher = longer survival): 114 % of control

SMILES: N#CSCc1ccc(Cl)cc1Cl
- T/C [2]: 75 % of control
- T/C (endpoint: mean tumor weight, dose: 50.0 mg/kg/injection, schedule: Q01DX011 (ip), vehicle: saline, higher = larger tumour): 56 % of control
- T/C (endpoint: mean tumor weight, dose: 100.0 mg/kg/injection, schedule: Q01DX011 (ip), vehicle: saline, higher = larger tumour): 25 % of control
- T/C (endpoint: mean tumor weight, dose: 200.0 mg/kg/injection, schedule: Q01DX011 (ip), vehicle: saline, higher = larger tumour): 47 % of control
- T/C [3]: 86 % of control
- T/C (endpoint: median survival time, dose: 50.0 mg/kg/injection, schedule: Q01DX011 (ip), vehicle: saline, higher = longer survival): 95 % of control
- T/C (endpoint: median survival time, dose: 100.0 mg/kg/injection, schedule: Q01DX011 (ip), vehicle: saline, higher = longer survival): 119 % of control
- T/C (endpoint: median survival time, dose: 200.0 mg/kg/injection, schedule: Q01DX011 (ip), vehicle: saline, higher = longer survival): 106 % of control

SMILES: COc1ccc([I+]c2ccc(OC)cc2)cc1
- T/C (endpoint: median survival time, dose: 0.78 mg/kg/injection, schedule: Q01DX011 (ip), vehicle: saline, higher = longer survival): 110 % of control
- T/C (endpoint: median survival time, dose: 1.56 mg/kg/injection, schedule: Q01DX011 (ip), vehicle: saline, higher = longer survival): 106 % of control
- T/C (endpoint: median survival time, dose: 3.12 mg/kg/injection, schedule: Q01DX011 (ip), vehicle: saline, higher = longer survival): 98 % of control

SMILES: N=[N+]=CC(=O)CCC(NC(=O)C(CCC(=O)C=[N+]=N)NC(=O)CCC(N)C(=O)O)C(=O)O (stereo unspecified)
- T/C (endpoint: mean tumor weight, dose: 7.5 micrograms/kg/injection, schedule: Q01DX011 (ip), vehicle: water, higher = larger tumour): 63 % of control
- T/C (endpoint: mean tumor weight, dose: 15.0 micrograms/kg/injection, schedule: Q01DX011 (ip), vehicle: water, higher = larger tumour): 66 % of control
- T/C (endpoint: mean tumor weight, dose: 30.0 micrograms/kg/injection, schedule: Q01DX011 (ip), vehicle: water, higher = larger tumour): 60 % of control
- T/C (endpoint: mean tumor weight, dose: 60.0 micrograms/kg/injection, schedule: Q01DX011 (ip), vehicle: water, higher = larger tumour): 63 % of control
- T/C (endpoint: median survival time, dose: 0.1 mg/kg/injection, schedule: Q01DX011 (ip), vehicle: saline, higher = longer survival): 88 % of control and 101 % of control
- T/C (endpoint: median survival time, dose: 0.2 mg/kg/injection, schedule: Q01DX011 (ip), vehicle: saline, higher = longer survival): 106 % of control
- T/C (endpoint: median survival time, dose: 0.4 mg/kg/injection, schedule: Q01DX011 (ip), vehicle: saline, higher = longer survival): 101 % of control and 103 % of control
- T/C (endpoint: median survival time, dose: 0.8 mg/kg/injection, schedule: Q01DX011 (ip), vehicle: saline, higher = longer survival): 87 % of control
- T/C (endpoint: median survival time, dose: 1.6 mg/kg/injection, schedule: Q01DX011 (ip), vehicle: saline, higher = longer survival): 87 % of control
- T/C (endpoint: median survival time, dose: 7.5 micrograms/kg/injection, schedule: Q01DX011 (ip), vehicle: water, higher = longer survival): 104 % of control
- T/C (endpoint: median survival time, dose: 12.5 micrograms/kg/injection, schedule: Q01DX009 (ip), vehicle: Klucel (hydroxypropylcellulose) (HPC), higher = longer survival): 97 % of control
- T/C (endpoint: median survival time, dose: 15.0 micrograms/kg/injection, schedule: Q01DX011 (ip), vehicle: water, higher = longer survival): 106 % of control
- T/C (endpoint: median survival time, dose: 25.0 micrograms/kg/injection, schedule: Q01DX009 (ip), vehicle: Klucel (hydroxypropylcellulose) (HPC), higher = longer survival): 98 % of control
- T/C (endpoint: median survival time, dose: 30.0 micrograms/kg/injection, schedule: Q01DX011 (ip), vehicle: water, higher = longer survival): 97 % of control
- T/C (endpoint: median survival time, dose: 50.0 micrograms/kg/injection, schedule: Q01DX009 (ip), vehicle: Klucel (hydroxypropylcellulose) (HPC), higher = longer survival): 90 % of control
- T/C (endpoint: median survival time, dose: 60.0 micrograms/kg/injection, schedule: Q01DX011 (ip), vehicle: water, higher = longer survival): 102 % of control
- T/C (endpoint: median survival time, dose: 100.0 micrograms/kg/injection, schedule: Q01DX009 (ip), vehicle: Klucel (hydroxypropylcellulose) (HPC), higher = longer survival): 98 % of control

SMILES: CNC(=S)N/N=C/C(C)=N/NC(=S)NC
- T/C (endpoint: median survival time, dose: 0.2 micrograms/kg/injection, schedule: Q01DX011 (ip), vehicle: saline with Tween-80, higher = longer survival): 100 % of control
- T/C (endpoint: median survival time, dose: 0.5 micrograms/kg/injection, schedule: Q01DX011 (ip), vehicle: saline with Tween-80, higher = longer survival): 102 % of control
- T/C (endpoint: median survival time, dose: 1.0 micrograms/kg/injection, schedule: Q01DX011 (ip), vehicle: saline with Tween-80, higher = longer survival): 102 % of control

SMILES: Nc1nc(CCl)nc(Nc2ccccc2)n1
- T/C [4]: 61 % of control
- T/C (endpoint: median survival time, dose: 100.0 mg/kg/injection, schedule: Q01DX011 (ip), vehicle: saline with Tween-80, higher = longer survival): 100 % of control

SMILES: CN=C1N[N+]2=CCCCC2S1 (stereo unspecified)
- T/C (endpoint: median survival time, dose: 40.0 mg/kg/injection, schedule: Q02DX011 (ip), vehicle: saline with Tween-80, higher = longer survival): 99 % of control
- T/C (endpoint: median survival time, dose: 60.0 mg/kg/injection, schedule: Q02DX011 (ip), vehicle: saline with Tween-80, higher = longer survival): 86 % of control
- T/C (endpoint: median survival time, dose: 80.0 mg/kg/injection, schedule: Q02DX011 (ip), vehicle: saline with Tween-80, higher = longer survival): 93 % of control

SMILES: CCCSc1ncnc2nc[nH]c12
- T/C (endpoint: mean tumor weight, dose: 25.0 mg/kg/injection, schedule: Q01DX011 (ip), vehicle: other, higher = larger tumour): 80 % of control
- T/C (endpoint: median survival time, dose: 25.0 mg/kg/injection, schedule: Q01DX011 (ip), vehicle: other, higher = longer survival): 102 % of control

SMILES: Cc1nc(N)sc1CCCl
- T/C (endpoint: mean tumor weight (est.), dose: 10.0 mg/kg/injection, schedule: Q01DX011 (ip), vehicle: saline, higher = larger tumour): 86 % of control
- T/C (endpoint: mean tumor weight (est.), dose: 20.0 mg/kg/injection, schedule: Q01DX011 (ip), vehicle: saline, higher = larger tumour): 105 % of control
- T/C (endpoint: mean tumor weight (est.), dose: 40.0 mg/kg/injection, schedule: Q01DX011 (ip), vehicle: saline, higher = larger tumour): 91 % of control
- T/C (endpoint: median survival time, dose: 10.0 mg/kg/injection, schedule: Q01DX011 (ip), vehicle: saline, higher = longer survival): 98 % of control
- T/C (endpoint: median survival time, dose: 20.0 mg/kg/injection, schedule: Q01DX011 (ip), vehicle: saline, higher = longer survival): 104 % of control
- T/C (endpoint: median survival time, dose: 40.0 mg/kg/injection, schedule: Q01DX011 (ip), vehicle: saline, higher = longer survival): 104 % of control

SMILES: O=c1ccc2nc3ccccc3sc-2c1
- T/C (endpoint: mean tumor weight (est.), dose: 12.5 mg/kg/injection, schedule: Q01DX011 (ip), vehicle: saline with Tween-80, higher = larger tumour): 73 % of control
- T/C (endpoint: mean tumor weight (est.), dose: 25.0 mg/kg/injection, schedule: Q01DX011 (ip), vehicle: saline with Tween-80, higher = larger tumour): 75 % of control
- T/C (endpoint: mean tumor weight (est.), dose: 50.0 mg/kg/injection, schedule: Q01DX011 (ip), vehicle: saline with Tween-80, higher = larger tumour): 78 % of control
- T/C [4]: 42 % of control
- T/C (endpoint: median survival time, dose: 25.0 mg/kg/injection, schedule: Q01DX011 (ip), vehicle: saline with Tween-80, higher = longer survival): 89 % of control

SMILES: C1OC1CN1CCN(CC2CO2)CC1 (stereo unspecified)
- T/C (endpoint: mean tumor weight (est.), dose: 1.0 mg/kg/injection, schedule: Q01DX011 (ip), vehicle: saline, higher = larger tumour): 83 % of control
- T/C (endpoint: mean tumor weight (est.), dose: 2.0 mg/kg/injection, schedule: Q01DX011 (ip), vehicle: saline, higher = larger tumour): 65 % of control
- T/C (endpoint: mean tumor weight (est.), dose: 4.0 mg/kg/injection, schedule: Q01DX011 (ip), vehicle: saline, higher = larger tumour): 74 % of control
- T/C (endpoint: mean tumor weight (est.), dose: 8.0 mg/kg/injection, schedule: Q01DX011 (ip), vehicle: saline, higher = larger tumour): 71 % of control
- T/C (endpoint: mean tumor weight (est.), dose: 16.0 mg/kg/injection, schedule: Q01DX011 (ip), vehicle: saline, higher = larger tumour): 63 % of control
- T/C [1]: 96 % of control
- T/C (endpoint: median survival time, dose: 4.0 mg/kg/injection, schedule: Q01DX011 (ip), vehicle: saline, higher = longer survival): 105 % of control
- T/C (endpoint: median survival time, dose: 16.0 mg/kg/injection, schedule: Q01DX011 (ip), vehicle: saline, higher = longer survival): 106 % of control

SMILES: Cc1c(N)nc(C(CC(N)=O)NCC(N)C(N)=O)nc1C(=O)NC(C(=O)NC(C)C(O)C(C)C(=O)NC(C(=O)NCCc1nc(-c2nc(C(=O)NCCCCN=C(N)N)cs2)cs1)C(C)O)C(OC1OC(CO)C(O)C(O)C1OC1OC(CO)C(O)C(OC(N)=O)C1O)c1cnc[nH]1 (stereo unspecified)
- T/C (endpoint: median survival time, dose: 3.9 mg/kg/injection, schedule: Q01DX011 (ip), vehicle: saline, higher = longer survival): 122 % of control
- T/C (endpoint: median survival time, dose: 6.5 mg/kg/injection, schedule: Q01DX011 (ip), vehicle: saline, higher = longer survival): 112 % of control
- T/C (endpoint: median survival time, dose: 10.8 mg/kg/injection, schedule: Q01DX011 (ip), vehicle: saline, higher = longer survival): 150 % of control
- T/C (endpoint: median survival time, dose: 18.0 mg/kg/injection, schedule: Q01DX011 (ip), vehicle: saline, higher = longer survival): 170 % of control
- T/C (endpoint: median survival time, dose: 30.0 mg/kg/injection, schedule: Q01DX011 (ip), vehicle: saline, higher = longer survival): 168 % of control

SMILES: CC1(C)N=C(N)N=C(N)N1c1ccc(CCc2ccccc2)cc1
- T/C (endpoint: mean tumor weight, dose: 12.5 mg/kg/injection, schedule: Q01DX011 (ip), vehicle: saline, higher = larger tumour): 84 % of control
- T/C [2]: 46 % of control
- T/C (endpoint: median survival time, dose: 12.5 mg/kg/injection, schedule: Q01DX011 (ip), vehicle: saline, higher = longer survival): 104 % of control
- T/C [3]: 89 % of control

SMILES: CC(SC(C)C(=O)NN)C(=O)NN (stereo unspecified)
- T/C (endpoint: mean tumor weight (est.), dose: 138.75 mg/kg/injection, schedule: Q01DX011 (ip), vehicle: saline, higher = larger tumour): 80 % of control
- T/C (endpoint: mean tumor weight (est.), dose: 277.5 mg/kg/injection, schedule: Q01DX011 (ip), vehicle: saline, higher = larger tumour): 87 % of control
- T/C (endpoint: mean tumor weight (est.), dose: 555.0 mg/kg/injection, schedule: Q01DX011 (ip), vehicle: saline, higher = larger tumour): 76 % of control
- T/C (endpoint: median survival time, dose: 138.75 mg/kg/injection, schedule: Q01DX011 (ip), vehicle: saline, higher = longer survival): 90 % of control
- T/C (endpoint: median survival time, dose: 277.5 mg/kg/injection, schedule: Q01DX011 (ip), vehicle: saline, higher = longer survival): 96 % of control
- T/C (endpoint: median survival time, dose: 555.0 mg/kg/injection, schedule: Q01DX011 (ip), vehicle: saline, higher = longer survival): 90 % of control

SMILES: CCCCCCCCCCCC[N+](C)(C)C (tested in a mixture with another compound)
- T/C (endpoint: median survival time, dose: 6.25 mg/kg/injection, schedule: Q01DX011 (ip), vehicle: saline, higher = longer survival): 110 % of control
